Laboratory results published in patent US20230139171A1 (SITA Information Networking Computing UK Limited, priority 2019, published 2023).

Legend:
Format in all cases: cell-based
human TLR9 = target: T1, human TLR9 (Homo sapiens, UniProt Q9NR96); test: TLR9 inhibition reporter assay (HEK-Blue cells, SEAP reporter, ODN2006 stimulation); conditions: HEK-Blue cells overexpressing human TLR9, SEAP reporter, ODN2006 5 nM
T1 construct: host or cells: HEK-Blue cells
T1 sequence (Q9NR96 26-1032): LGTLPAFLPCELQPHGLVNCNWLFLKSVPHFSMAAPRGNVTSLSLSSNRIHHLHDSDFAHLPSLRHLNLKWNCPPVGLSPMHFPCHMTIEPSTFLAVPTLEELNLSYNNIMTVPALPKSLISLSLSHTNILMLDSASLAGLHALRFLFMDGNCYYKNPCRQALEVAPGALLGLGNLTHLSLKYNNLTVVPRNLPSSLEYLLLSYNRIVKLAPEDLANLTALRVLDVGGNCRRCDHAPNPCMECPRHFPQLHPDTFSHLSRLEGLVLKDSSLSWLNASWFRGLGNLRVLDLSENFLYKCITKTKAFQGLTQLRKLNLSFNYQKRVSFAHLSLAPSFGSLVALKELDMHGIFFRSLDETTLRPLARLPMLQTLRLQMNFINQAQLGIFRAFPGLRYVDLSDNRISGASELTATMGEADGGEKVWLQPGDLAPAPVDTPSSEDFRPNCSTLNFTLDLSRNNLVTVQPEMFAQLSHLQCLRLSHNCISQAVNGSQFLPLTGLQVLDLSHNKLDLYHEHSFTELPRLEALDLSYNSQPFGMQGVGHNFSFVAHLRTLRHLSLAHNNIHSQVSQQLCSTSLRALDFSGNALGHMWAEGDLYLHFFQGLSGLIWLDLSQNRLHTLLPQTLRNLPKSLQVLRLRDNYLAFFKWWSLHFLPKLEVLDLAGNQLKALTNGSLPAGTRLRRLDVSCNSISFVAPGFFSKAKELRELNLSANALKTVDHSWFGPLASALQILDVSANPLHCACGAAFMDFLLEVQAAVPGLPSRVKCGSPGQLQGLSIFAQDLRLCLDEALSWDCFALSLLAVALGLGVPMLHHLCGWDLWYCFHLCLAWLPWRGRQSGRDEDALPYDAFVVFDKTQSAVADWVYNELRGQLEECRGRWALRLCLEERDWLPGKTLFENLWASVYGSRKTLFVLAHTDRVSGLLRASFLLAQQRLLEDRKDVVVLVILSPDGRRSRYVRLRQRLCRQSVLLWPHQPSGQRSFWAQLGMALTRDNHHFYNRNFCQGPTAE
How it was run: (§1)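 Dose–response from 0.05 nM to 50 μM was run in HEK-Blue human TLR7, TLR8 and TLR9 reporter cells. After 30 min at room temperature with compound, ligand was added (TLR7 gardiquimod 7.5 μM; TLR8 R848 15.9 μM; TLR9 ODN2006 5 nM) and SEAP measured next day, at 22 h.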

human TLR8 = target: T2, human TLR8 (Homo sapiens, UniProt Q9NR97); test: TLR8 inhibition reporter assay (HEK-Blue cells, SEAP reporter, R848 stimulation); conditions: HEK-Blue cells overexpressing human TLR8, SEAP reporter, R848 15.9 μM; read-out: TLR8 IC50
T2 construct: host or cells: HEK-Blue cells
T2 sequence (Q9NR97 27-1041): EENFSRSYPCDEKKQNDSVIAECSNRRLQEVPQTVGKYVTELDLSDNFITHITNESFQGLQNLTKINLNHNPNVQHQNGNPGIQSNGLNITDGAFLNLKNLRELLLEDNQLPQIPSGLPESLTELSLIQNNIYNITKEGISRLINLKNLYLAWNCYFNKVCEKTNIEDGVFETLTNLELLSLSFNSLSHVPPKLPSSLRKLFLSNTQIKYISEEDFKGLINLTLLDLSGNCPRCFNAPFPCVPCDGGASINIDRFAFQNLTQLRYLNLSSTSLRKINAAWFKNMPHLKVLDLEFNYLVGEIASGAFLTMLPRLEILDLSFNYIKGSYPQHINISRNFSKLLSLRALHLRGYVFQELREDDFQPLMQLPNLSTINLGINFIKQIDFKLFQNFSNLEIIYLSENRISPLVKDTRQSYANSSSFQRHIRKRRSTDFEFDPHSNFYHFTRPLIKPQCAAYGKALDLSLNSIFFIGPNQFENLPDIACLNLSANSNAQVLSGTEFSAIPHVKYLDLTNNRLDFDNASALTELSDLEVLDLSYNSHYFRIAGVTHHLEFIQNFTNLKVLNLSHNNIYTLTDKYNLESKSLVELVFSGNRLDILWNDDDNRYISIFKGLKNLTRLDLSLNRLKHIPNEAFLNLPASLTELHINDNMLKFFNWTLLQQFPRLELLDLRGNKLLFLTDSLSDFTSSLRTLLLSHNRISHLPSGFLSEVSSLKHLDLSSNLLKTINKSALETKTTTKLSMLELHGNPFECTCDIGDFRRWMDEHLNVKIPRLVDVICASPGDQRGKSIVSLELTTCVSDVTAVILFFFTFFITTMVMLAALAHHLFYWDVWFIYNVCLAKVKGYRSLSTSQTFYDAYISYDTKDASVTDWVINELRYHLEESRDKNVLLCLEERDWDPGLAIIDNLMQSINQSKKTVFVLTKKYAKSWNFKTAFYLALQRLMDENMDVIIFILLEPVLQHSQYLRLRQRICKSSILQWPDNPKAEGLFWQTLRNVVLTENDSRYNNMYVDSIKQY
How it was run: as §1

human TLR7 = target: T3, human TLR7 (Homo sapiens, UniProt Q9NYK1); test: TLR7 inhibition reporter assay (HEK-Blue cells, SEAP reporter, gardiquimod stimulation); conditions: HEK-Blue cells overexpressing human TLR7, SEAP reporter, gardiquimod 7.5 μM; read-out: TLR7 IC50
T3 construct: host or cells: HEK-Blue cells
T3 sequence (Q9NYK1 27-1049): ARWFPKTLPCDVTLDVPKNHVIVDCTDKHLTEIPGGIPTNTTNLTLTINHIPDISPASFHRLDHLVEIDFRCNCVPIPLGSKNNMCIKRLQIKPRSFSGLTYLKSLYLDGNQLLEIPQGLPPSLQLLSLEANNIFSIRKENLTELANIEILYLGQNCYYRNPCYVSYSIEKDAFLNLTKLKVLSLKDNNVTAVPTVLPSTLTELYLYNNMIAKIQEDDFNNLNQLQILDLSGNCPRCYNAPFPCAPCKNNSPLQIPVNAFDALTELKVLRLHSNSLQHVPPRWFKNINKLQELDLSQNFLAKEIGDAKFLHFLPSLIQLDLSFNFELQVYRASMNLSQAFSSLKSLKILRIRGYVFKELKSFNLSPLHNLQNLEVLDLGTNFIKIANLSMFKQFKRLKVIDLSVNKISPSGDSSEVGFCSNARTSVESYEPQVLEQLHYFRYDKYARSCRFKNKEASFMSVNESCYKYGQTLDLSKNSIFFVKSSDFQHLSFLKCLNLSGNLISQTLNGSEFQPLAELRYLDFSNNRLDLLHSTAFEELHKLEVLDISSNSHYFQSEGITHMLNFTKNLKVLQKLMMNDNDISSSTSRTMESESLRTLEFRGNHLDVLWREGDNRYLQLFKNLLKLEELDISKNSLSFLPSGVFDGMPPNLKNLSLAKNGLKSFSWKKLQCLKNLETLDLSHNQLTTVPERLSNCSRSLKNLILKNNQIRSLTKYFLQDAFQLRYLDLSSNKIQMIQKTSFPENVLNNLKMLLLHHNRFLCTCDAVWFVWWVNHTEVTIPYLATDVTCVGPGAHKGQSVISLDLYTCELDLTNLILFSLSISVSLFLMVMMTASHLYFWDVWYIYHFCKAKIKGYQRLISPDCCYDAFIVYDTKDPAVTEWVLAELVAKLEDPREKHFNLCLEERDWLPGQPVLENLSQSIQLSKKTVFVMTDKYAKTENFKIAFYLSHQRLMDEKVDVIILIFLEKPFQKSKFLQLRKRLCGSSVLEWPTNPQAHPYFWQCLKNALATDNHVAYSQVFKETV
How it was run: as §1

IC50 (human TLR9)	IC50 (human TLR8)	IC50 (human TLR7)	SMILES
45400 nM	19.5 nM	1.84 nM	Cc1c(-c2[nH]c3sc(C4CCN(S(C)(=O)=O)CC4)nc3c2C(C)C)cn2ncnc2c1C [Example 45, 5-(7,8-dimethyl-[1,2,4]triazolo[1,5-a]pyridin-6-yl)-6-isopropyl-2-(1-(methylsulfonyl)piperidin-4-yl)-4H-pyrrolo[3,2-d]thiazole]
2500 nM	0.11 nM	0.57 nM	Cc1c(-c2[nH]c3sc(C4CCN(C5CCOCC5)CC4)nc3c2C(C)C)cn2ncnc2c1C [Example 46, 5-(7,8-dimethyl-[1,2,4]triazolo[1,5-a]pyridin-6-yl)-6-isopropyl-2-(1-(tetrahydro-2H-pyran-4-yl)piperidin-4-yl)-4H-pyrrolo[3,2-d]thiazole]
6840 nM	0.56 nM	2.92 nM	Cc1c(-c2[nH]c3sc(C4CCN(CC5(C)COC5)CC4)nc3c2C(C)C)cn2ncnc2c1C [Example 47, 5-(7,8-dimethyl-[1,2,4]triazolo[1,5-a]pyridin-6-yl)-6-isopropyl-2-(1-((3-methyloxetan-3-yl)methyl)piperidin-4-yl)-4H-pyrrolo[3,2-d]thiazole]
19500 nM	4.32 nM	6.02 nM	Cc1c(-c2[nH]c3sc(C4CCN(CC5CCOCC5)CC4)nc3c2C(C)C)cn2ncnc2c1C [Example 48, 5-(7,8-dimethyl-[1,2,4]triazolo[1,5-a]pyridin-6-yl)-6-isopropyl-2-(1-((tetrahydro-2H-pyran-4-yl)methyl)piperidin-4-yl)-4H-pyrrolo[3,2-d]thiazole]
9220 nM	0.48 nM	0.97 nM	Cc1c(-c2[nH]c3sc(C4CCN(C)CC4)nc3c2C(C)C)cn2ncnc2c1C [Example 49, 5-(7,8-dimethyl-[1,2,4]triazolo[1,5-a]pyridin-6-yl)-6-isopropyl-2-(1-methylpiperidin-4-yl)-4H-pyrrolo[3,2-d] thiazole]
17300 nM	2.74 nM	1.27 nM	CCN1CCC(c2nc3c(C(C)C)c(-c4cn5ncnc5c(C)c4C)[nH]c3s2)CC1 [Example 50, 5-(7,8-dimethyl-[1,2,4]triazolo[1,5-a]pyridin-6-yl)-2-(1-ethylpiperidin-4-yl)-6-isopropyl-4H-pyrrolo[3,2-d]thiazole]
8800 nM	1.03 nM	1.59 nM	CCCN1CCC(c2nc3c(C(C)C)c(-c4cn5ncnc5c(C)c4C)[nH]c3s2)CC1 [Example 51, 5-(7,8-dimethyl-[1,2,4]triazolo[1,5-a]pyridin-6-yl)-6-isopropyl-2-(1-propylpiperidin-4-yl)-4H-pyrrolo[3,2-d]thiazole]
18000 nM	4.22 nM	2.9 nM	Cc1c(-c2[nH]c3sc(C4CCN(CC(C)C)CC4)nc3c2C(C)C)cn2ncnc2c1C [Example 52, 5-(7,8-dimethyl-[1,2,4]triazolo[1,5-a]pyridin-6-yl)-2-(1-isobutylpiperidin-4-yl)-6-isopropyl-4H-pyrrolo[3,2-d]thiazole]
5070 nM	0.79 nM	0.94 nM	Cc1c(-c2[nH]c3sc(C4CCN(CC5CC5)CC4)nc3c2C(C)C)cn2ncnc2c1C [Example 53, 2-(1-(cyclopropylmethyl)piperidin-4-yl)-5-(7,8-dimethyl-[1,2,4]triazolo[1,5-a]pyridin-6-yl)-6-isopropyl-4H-pyrrolo[3,2-d]thiazole]
6670 nM	3.74 nM	1.1 nM	CCC(CC)CN1CCC(c2nc3c(C(C)C)c(-c4cn5ncnc5c(C)c4C)[nH]c3s2)CC1 [Example 54, 5-(7,8-dimethyl-[1,2,4]triazolo[1,5-a]pyridin-6-yl)-2-(1-(2-ethylbutyl)piperidin-4-yl)-6-isopropyl-4H-pyrrolo[3,2-d]thiazole]
23100 nM	1.34 nM	4.24 nM	Cc1c(-c2[nH]c3sc(C4CCN(CC(=O)N(C)C)CC4)nc3c2C(C)C)cn2ncnc2c1C [Example 57, 2-(4-(5-(7,8-dimethyl-[1,2,4]triazolo[1,5-a]pyridin-6-yl)-6-isopropyl-4H-pyrrolo[3,2-d]thiazol-2-yl)piperidin-1-yl)-N,N-dimethylacetamide]
32800 nM	1.43 nM	3.01 nM	Cc1c(-c2[nH]c3sc(C4CCN(CC(N)=O)CC4)nc3c2C(C)C)cn2ncnc2c1C [Example 58, 2-(4-(5-(7,8-dimethyl-[1,2,4]triazolo[1,5-a]pyridin-6-yl)-6-isopropyl-4H-pyrrolo[3,2-d]thiazol-2-yl)piperidin-1-yl)acetamide]
5490 nM	41.9 nM	2.42 nM	COc1cc(-c2[nH]c3sc(C4CCC(N5CC6(C5)CS(=O)(=O)C6)CC4)nc3c2C(C)C)cn2ncnc12 (stereo not drawn) [Example 97, 6-(4-(6-isopropyl-5-(8-methoxy-[1,2,4]triazolo[1,5-a]pyridin-6-yl)-4H-pyrrolo[3,2-d]thiazol-2-yl)cyclohexyl)-2-thia-6-azaspiro[3.3]heptane 2,2-dioxide]
